Where two headings read alike, the source gives them in different places. No end group written: not given here.
What was measured:
Format in all cases: cell-based
[1] = system: Pectobacterium carotovorum; details: Pectobacterium carotovorum; for MIC (>90% inhibition): 1-2 days at 25° C.; for LC (lethal concentration, 100% inhibition): at least 4 days of incubation
Protocol: (§1) In-vitro inhibition assays were performed in sterile flat-bottom 96-well plates (Greiner bio-one, Frickenhausen). Antimicrobial peptides were dissolved in 0.01% acetic acid containing 0.2% BSA (500 μg/ml), filter sterilized and stored at −20° C. For inhibition assays dilutions of peptides ranging from 5 to 200 μg/ml were prepared and 10 μl (antibacterial assay) or 20 (antifungal assay) of each concentration was loaded per well.
(§2) Bacteria colonies from overnight agar plate cultures were resuspended into 5 ml LB-medium or HPG-medium (OD600 nm=0.08-0.1) and diluted into LB-medium/HPG-medium (1:100). 90 μl of this suspension containing about 10^5-10^6 CFU/ml of tested bacteria were added to each well resulting in final peptide concentrations of 0, 0.5, 1, 2, 5, 10, and 20 μg/ml. […] The lowest concentration, in which there is no observable growth (>90% inhibition) is referred to as minimal inhibitory concentration (MIC). […] For each peptide concentration two identical inhibition assays were performed.

[2] = system: Pseudomonas syringae pv. syringae; details: Pseudomonas syringae pv. syringae; for MIC (>90% inhibition): 1-2 days at 25° C.; for LC (lethal concentration, 100% inhibition): at least 4 days of incubation
Protocol: as §1, §2

[3] = system: Pseudomonas syringae pv. tomato; details: for LC (lethal concentration, 100% inhibition): at least 4 days of incubation
Protocol: as §1, §2

Pseudomonas corrugata = details: Pseudomonas corrugata; for MIC (>90% inhibition): 1-2 days at 25° C.; for LC (lethal concentration, 100% inhibition): at least 4 days of incubation
Protocol: as §1, §2

Xanthomonas vesicatoria = assay: In-vitro inhibition assay (MIC and LC), Example 3; details: for MIC (>90% inhibition): 1-2 days at 25° C.; for LC (lethal concentration, 100% inhibition): at least 4 days of incubation
Protocol: as §1, §2

[4] = system: Clavibacter michiganensis; assay: In-vitro inhibition assay (MIC and LC), Example 3; details: for MIC (>90% inhibition): 1-2 days at 25° C.; for LC (lethal concentration, 100% inhibition): at least 4 days of incubation
Protocol: as §1, §2

[5] = Pseudomonas syringae pv. tomato, 1-2 days at 25° C.
[6] = Pseudomonas syringae pv. tomato

What does the source list for RKKKKKIIKKLI-NH2 [SP1-21]?
MIC (>90% inhibition) [1]: >10/>10 μg/ml; LC (lethal concentration, 100% inhibition) [1]: >10/>10 μg/ml; MIC (>90% inhibition) [2]: 0.5 µg/mL; LC (lethal concentration, 100% inhibition) [2]: 2.5 µg/mL; MIC (>90% inhibition) [3, 5]: 2.5 µg/mL; LC (lethal concentration, 100% inhibition) [3, 6]: 5.0 µg/mL; MIC (>90% inhibition) (Pseudomonas corrugata): 2.5 µg/mL; LC (lethal concentration, 100% inhibition) (Pseudomonas corrugata): 5.0 µg/mL; MIC (>90% inhibition) (Xanthomonas vesicatoria): >10/>10 μg/ml; LC (lethal concentration, 100% inhibition) (Xanthomonas vesicatoria): >10/>10 μg/ml; MIC (>90% inhibition) [4]: >10/>10 μg/ml; LC (lethal concentration, 100% inhibition) [4]: >10/>10 μg/ml

Which “MIC (>90% inhibition)” value [1] does the source give for RKKKFKFFKRLF-NH2 [SP1-12] here?
The value was >10/>10 μg/ml.

And the “LC (lethal concentration, 100% inhibition)” value [1]?
The value was >10/>10 μg/ml.

What about the “MIC (>90% inhibition)” value [2] of the same substance?
Its value is 0.1 µg/mL.

And the “LC (lethal concentration, 100% inhibition)” value [2]?
Its value is 0.5 µg/mL.

And the “MIC (>90% inhibition)” value [3, 5]?
Its value is >10/>10 μg/ml.

And the “LC (lethal concentration, 100% inhibition)” value [3, 6]?
Its value is >10/>10 μg/ml.

And the “MIC (>90% inhibition)” value (Pseudomonas corrugata)?
The value was 0.25 µg/mL.

What about the “LC (lethal concentration, 100% inhibition)” value (Pseudomonas corrugata) of the same substance?
The value was 0.5 µg/mL.

What about the “MIC (>90% inhibition)” value (Xanthomonas vesicatoria) of the same substance?
The value was 0.5 µg/mL.

And the “LC (lethal concentration, 100% inhibition)” value (Xanthomonas vesicatoria)?
The value was 2.5 µg/mL.

And the “MIC (>90% inhibition)” value [4]?
The value was 0.5/0.5 μg/ml.

And the “LC (lethal concentration, 100% inhibition)” value [4]?
Its value is 0.5/0.5 μg/ml.

Which “MIC (>90% inhibition)” value [1] does the source give for RKKRLKVVKRLV-NH2 [SP1-4] here?
The value was >10/>10 μg/ml.

What about the “LC (lethal concentration, 100% inhibition)” value [1] of the same substance?
The value was >10/>10 μg/ml.

What about the “MIC (>90% inhibition)” value [2] of the same substance?
Its value is 5.0 µg/mL.

And the “LC (lethal concentration, 100% inhibition)” value [2]?
Its value is over 10 µg/mL.

And the “MIC (>90% inhibition)” value [3, 5]?
Its value is 2.5 µg/mL.

And the “LC (lethal concentration, 100% inhibition)” value [3, 6]?
The value was over 10 µg/mL.

And the “MIC (>90% inhibition)” value (Pseudomonas corrugata)?
Its value is >10/>10 μg/ml.

And the “LC (lethal concentration, 100% inhibition)” value (Pseudomonas corrugata)?
Its value is >10/>10 μg/ml.

What about the “MIC (>90% inhibition)” value (Xanthomonas vesicatoria) of the same substance?
Its value is >10/>10 μg/ml.

What about the “LC (lethal concentration, 100% inhibition)” value (Xanthomonas vesicatoria) of the same substance?
The value was >10/>10 μg/ml.

And the “MIC (>90% inhibition)” value [4]?
Its value is >10/>10 μg/ml.

What about the “LC (lethal concentration, 100% inhibition)” value [4] of the same substance?
Its value is >10/>10 μg/ml.

With RKKKFKFFKRFF-NH2 [SP1-13] as the substance, how does the “MIC (>90% inhibition)” value [1] read?
Its value is >10/>10 μg/ml.

What about the “LC (lethal concentration, 100% inhibition)” value [1] of the same substance?
The value was >10/>10 μg/ml.

What about the “MIC (>90% inhibition)” value [2] of the same substance?
Its value is 0.1 µg/mL.

What about the “LC (lethal concentration, 100% inhibition)” value [2] of the same substance?
Its value is 0.5 µg/mL.

What about the “MIC (>90% inhibition)” value [3] of the same substance?
The value was 1.0 µg/mL.

What about the “LC (lethal concentration, 100% inhibition)” value [3, 6] of the same substance?
Its value is 5.0 µg/mL.

What about the “MIC (>90% inhibition)” value (Pseudomonas corrugata) of the same substance?
The value was under 0.1 µg/mL.

And the “LC (lethal concentration, 100% inhibition)” value (Pseudomonas corrugata)?
The value was 0.25 µg/mL.

And the “MIC (>90% inhibition)” value (Xanthomonas vesicatoria)?
The value was 0.5 µg/mL.

And the “LC (lethal concentration, 100% inhibition)” value (Xanthomonas vesicatoria)?
Its value is 2.5 µg/mL.

And the “MIC (>90% inhibition)” value [4]?
The value was 0.25 µg/mL.

What about the “LC (lethal concentration, 100% inhibition)” value [4] of the same substance?
Its value is 1.0 µg/mL.

KKKKKKIIKKII-NH2 [SP1-22] was tested. Which “MIC (>90% inhibition)” value [1] did it give?
Its value is >10/>10 μg/ml.

And the “LC (lethal concentration, 100% inhibition)” value [1]?
The value was >10/>10 μg/ml.

What about the “MIC (>90% inhibition)” value [2] of the same substance?
The value was 2.5 µg/mL.

What about the “LC (lethal concentration, 100% inhibition)” value [2] of the same substance?
Its value is 10 µg/mL.

What about the “MIC (>90% inhibition)” value [3, 5] of the same substance?
The value was 1.0 µg/mL.

What about the “LC (lethal concentration, 100% inhibition)” value [3, 6] of the same substance?
Its value is 5.0 µg/mL.

And the “MIC (>90% inhibition)” value (Pseudomonas corrugata)?
The value was >10/>10 μg/ml.

And the “LC (lethal concentration, 100% inhibition)” value (Pseudomonas corrugata)?
Its value is >10/>10 μg/ml.

And the “MIC (>90% inhibition)” value (Xanthomonas vesicatoria)?
The value was >10/>10 μg/ml.

What about the “LC (lethal concentration, 100% inhibition)” value (Xanthomonas vesicatoria) of the same substance?
The value was >10/>10 μg/ml.

And the “MIC (>90% inhibition)” value [4]?
Its value is >10/>10 μg/ml.

What about the “LC (lethal concentration, 100% inhibition)” value [4] of the same substance?
The value was >10/>10 μg/ml.

For RKKRLKLLKRLL-NH2 [SP1-1], which “LC (lethal concentration, 100% inhibition)” value [1] is on record?
The value was >10/>10 μg/ml.

And the “MIC (>90% inhibition)” value [2]?
Its value is 0.1/0.1 μg/ml.

What about the “LC (lethal concentration, 100% inhibition)” value [2] of the same substance?
Its value is 0.1/0.1 μg/ml.

What about the “MIC (>90% inhibition)” value [3] of the same substance?
The value was >10/>10 μg/ml.

What about the “LC (lethal concentration, 100% inhibition)” value [3, 6] of the same substance?
Its value is >10/>10 μg/ml.

And the “MIC (>90% inhibition)” value (Pseudomonas corrugata)?
Its value is under 0.1 µg/mL.

What about the “LC (lethal concentration, 100% inhibition)” value (Pseudomonas corrugata) of the same substance?
Its value is 0.25 µg/mL.

And the “MIC (>90% inhibition)” value (Xanthomonas vesicatoria)?
The value was 0.1 µg/mL.

And the “LC (lethal concentration, 100% inhibition)” value (Xanthomonas vesicatoria)?
Its value is 0.25 µg/mL.

And the “MIC (>90% inhibition)” value [4]?
Its value is 2.5/2.5 μg/ml.

What about the “LC (lethal concentration, 100% inhibition)” value [4] of the same substance?
Its value is 2.5/2.5 μg/ml.

Which “MIC (>90% inhibition)” value [1] does the source give for KKKKIIKRLI-NH2 [SP1-17] here?
Its value is >10/>10 μg/ml.

And the “LC (lethal concentration, 100% inhibition)” value [1]?
The value was >10/>10 μg/ml.

And the “MIC (>90% inhibition)” value [2]?
Its value is under 0.1 µg/mL.

And the “LC (lethal concentration, 100% inhibition)” value [2]?
The value was over 10 µg/mL.

And the “MIC (>90% inhibition)” value [3, 5]?
The value was 1.0/1.0 μg/ml.

What about the “LC (lethal concentration, 100% inhibition)” value [3, 6] of the same substance?
The value was 1.0/1.0 μg/ml.

And the “MIC (>90% inhibition)” value (Pseudomonas corrugata)?
Its value is 5.0 µg/mL.

And the “LC (lethal concentration, 100% inhibition)” value (Pseudomonas corrugata)?
The value was over 10 µg/mL.

And the “MIC (>90% inhibition)” value (Xanthomonas vesicatoria)?
The value was >10/>10 μg/ml.

And the “LC (lethal concentration, 100% inhibition)” value (Xanthomonas vesicatoria)?
Its value is >10/>10 μg/ml.

What about the “MIC (>90% inhibition)” value [4] of the same substance?
Its value is >10/>10 μg/ml.

What about the “LC (lethal concentration, 100% inhibition)” value [4] of the same substance?
Its value is >10/>10 μg/ml.
